Data published in patent US20080003215A1, “Use of pre-dissolved pristinamycin-type and polyether ionophore type antimicrobial agents in the production of ethanol” (priority 2006, published 2008).
Read-outs that look alike come from different tables or passages of the source.

How the values were obtained:
[1] = Solubility of virginiamycin in several solvents (applicant's determination); assay type: physicochemical
Experimental: The solubility of virginiamycin in several solvents were determined. Each of these solvents can be useful in solubilized organic liquid comprising antimicrobial material, an emulsion of the same in water, or in both. […] Such a solution is stable, pumpable, and useful not only for treatments of ethanol-producing facilities but for a number of other uses where virginiamycin is used.

[2] = Rate of dissolution of powdered virginiamycin in stirred water; assay type: physicochemical; settings: 0.1 gram of 5.2 to 10 micron average particle size powder in 4 liters of water, continuously stirred
Text: The solubility of monensin, virginiamycin, and similar pristinamycin-type antimicrobial agents and polyether ionophore-type antimicrobial agents in water is very low. Much more important, however, is the rate of dissolution of small granular pristinamycin-type antimicrobial agents and polyether ionophore-type antimicrobial agents in water. A 0.1 gram sample of a 5.2 to 10 micron average particle size virginiamycin was placed in a beaker with 4 liters of water, and the composition was continuously stirred. The presence of undissolved crystals was very evident.

[3] = system: consortium of 6 Lactobacilli spp cultures; assay: Corn mash fermentation without yeast, inoculated with Lactobacillus consortium, well-mixed or poorly-mixed fermentors; assay type: cell-based, Lactobacillus sp
Text: The purpose of this experiment is to determine the efficacy of virginiamycin in three forms (DMSO-solubilized virginiamycin, Belgium powdered virginiamycin, and Brazilian powdered virginiamycin) in real corn mash fermentations against a consortium of Lactobacillus sp bacteria. No yeasts will be added. The efficacy of these forms of virginiamycin will be further tested in fermentors that will be properly (continuously) mixed and in fermentors that have improper mixing—simulating more closely the fermentor mixing conditions seen in field ethanol plants.
The first step in testing was the preparation of corn mash (i.e., Gelatinization, Liquefaction, and Saccharification). […]
The mash temperature was then decreased to 60° C. at which point 2 L water and 200 ml G-Zyme™ 480 Ethanol glucoamylase (available from Genencor, Rochester, N.Y.) were added. […] No bacterial contamination was detected in any test incubated mashes.
For each 7.6 L sterile container of mash, a 60 g aliquot was removed and divided into two 30 g sub-samples within 50 ml centrifuge tubes. […] The specific gravity of each subsample was then determined using a digital density meter (DMA-45; Anton Paar KG, Graz, Austria) which was temperature regulated to 4° C. If the readings on the density meter were off-scale, then a precise dilution of the subsamples were done and then re-read in the density meter. […]

[4] = cited from earlier work
[5] = solvent: 50% NMP/50% Ethyl lactate

With virginiamycin the “Concentration that can be dissolved” value ([1]; ethanol with water, at least 75% by weight ethanol (balance water)) was ~70000 µg/mL, the “Virginiamycin solubility in grams per liter of solvent” value ([1]; solvent: 2-ethyl hexyl lactate) was 24 grams per liter and the “Virginiamycin solubility in grams per liter of solvent” value ([1]; solvent: 2-ethyl hexyl lactate, listed as Virginiamycin) was “˜24 grams per liter”. For the same substance, the “Virginiamycin solubility in grams per liter of solvent” value ([1]; solvent: 50% NMP/50% DMSO) was “˜335 grams per liter”, the “Gel formation of virginiamycin solution” value [1, 5] was “forms a hard gel at 280” and the “Virginiamycin solubility in grams per liter of solvent” value [1, 5] was <200 grams per liter. The “Virginiamycin solubility in grams per liter of solvent” value ([1]; solvent: 70% ethanol/30% water) was “˜70 grams per liter”, the “Virginiamycin solubility in grams per liter of solvent” value ([1]; solvent: Dimethylsulfoxide (DMSO)) was “˜270 grams per liter” and the “Virginiamycin solubility in grams per liter of solvent” value ([1]; solvent: Ethyl lactate) was “about 92 grams per liter”. For the same substance, the “Virginiamycin solubility in grams per liter of solvent” value ([1]; solvent: Ethyl lactate, listed as Virginiamycin) was “˜92 grams per liter”, the “Virginiamycin solubility in grams per liter of solvent” value ([1]; solvent: Methyl soyate ester) was <1 gram per liter and the “Virginiamycin solubility in grams per liter of solvent” value ([1]; solvent: N,N-dimethylcapramide) was “˜70 grams per liter”. For the same substance, the “Virginiamycin solubility in grams per liter of solvent” value ([1]; solvent: N-methylpyrrolidone (NMP)) was “˜260 grams per liter”, the “Amount of virginiamycin dissolved per liter” value ([1]; solvent: NMP, over a short period of time) was “about 290 grams per liter” and the “Virginiamycin solubility in grams per liter of solvent” value ([1]; solvent: tetrahydrofurfuryl alcohol) was <160 grams per liter. The “Time until only a few crystals remained visible (dissolution)” value [2] was “on the order of an hour”, the Lactobacilli killed ([3]; pre-solubilized agent, within 6 hours) was “at least 90%” and the Lactobacillus count ([3]; well mixed fermentors (150 RPM), 1 ppm virginiamycin, inoculum 5E5 CFU/ml, up to 48 h) was ≤ 1 E6 CFU/ml. For the same substance, the “Solubility (literature data, "virginiamycin-type" compounds)” value ([4]; solvent: 1% ethanol in water) was 0.002 mg/mL, the “Solubility (literature data, "virginiamycin-type" compounds)” value ([4]; solvent: DMSO) was > 100 mg/mL and the “Solubility (literature data, "virginiamycin-type" compounds)” value ([4]; solvent: acetone, disproportionate solubilities for Type A and Type B) was ~190 mg/mL. For the same substance, the “Solubility (literature data, "virginiamycin-type" compounds)” value ([4]; solvent: amylacetate) was > 4 mg/mL, the “Solubility (literature data, "virginiamycin-type" compounds)” value ([4]; solvent: benzene) was > 3 mg/mL and the “Solubility (literature data, "virginiamycin-type" compounds)” value ([4]; solvent: butanol) was > 10 mg/mL. The “Solubility (literature data, "virginiamycin-type" compounds)” value ([4]; solvent: carbon tetrachloride) was 0.02 mg/mL, the “Solubility (literature data, "virginiamycin-type" compounds)” value ([4]; solvent: chloroform) was 150 mg/mL and the “Solubility (literature data, "virginiamycin-type" compounds)” value ([4]; solvent: dimethylformamide) was 200 mg/mL. The “Virginiamycin that can be dissolved (literature data)” value ([4]; solvent: dimethylformamide) was 200 grams, the “Virginiamycin that can be dissolved (literature data)” value ([4]; solvent: dimethylsulfoxide) was 200 grams and the “Solubility (literature data, "virginiamycin-type" compounds)” value ([4]; solvent: dioxane) was 130 mg/mL. The “Solubility (literature data, "virginiamycin-type" compounds)” value ([4]; solvent: ethanol) was 70 mg/mL, the “Solubility (literature data, "virginiamycin-type" compounds)” value ([4]; solvent: ether, disproportionate solubilities for Type A and Type B) was 11 mg/mL and the “Solubility (literature data, "virginiamycin-type" compounds)” value ([4]; solvent: ethyl acetate, disproportionate solubilities for Type A and Type B) was ~205 mg/mL. For the same substance, the “Solubility (literature data, "virginiamycin-type" compounds)” value ([4]; solvent: hexane) was 0.2 mg/mL, the “Solubility (literature data, "virginiamycin-type" compounds)” value ([4]; solvent: isopropanol) was > 10 mg/mL and the “Solubility (literature data, "virginiamycin-type" compounds)” value ([4]; solvent: methanol) was 25 mg/mL. The “Solubility (literature data, "virginiamycin-type" compounds)” value ([4]; solvent: methylethylketone) was 35 mg/mL, the “Solubility (literature data, "virginiamycin-type" compounds)” value ([4]; solvent: toluene, disproportionate solubilities for Type A and Type B) was 82 mg/mL and the “Solubility (literature data, "virginiamycin-type" compounds)” value ([4]; solvent: water) was 0.0002 mg/mL. The Solubility in water ([4]; water, background statement) was 0.0001 grams/l.
